The text below walks through data of ChEMBL document CHEMBL3046237, “Efficacy of methyl nonyl ketone as an in-soil repellent for common voles (Microtus arvalis)” (2013).

Active and inactive are the calls of the source. The rule behind the calls is not given here.

Assay [1] deals with Microtus arvalis. The experiment in a line: In-soil repellent activity against Microtus arvalis (Common vole) in forage grassland assessed as decrease in number of active burrow entrances at 3.97% ai applied as foam in field for first 3 days and reapplied on day 10 measured at 24 hr after last drug dosage. The format is functional, organism-based.
Assay [2] relates to Microtus arvalis. As to the kind of experiment: In-soil repellent activity against Microtus arvalis (Common vole) in forage grassland assessed as decrease in number of active burrow entrances at 3.97% ai applied as foam in field for 3 days measured on day 10. The format is functional, organism-based.
For assay [3], the system named is Microtus arvalis. As to the kind of experiment: In-soil repellent activity against Microtus arvalis (Common vole) in forage grassland assessed as decrease in number of active burrow entrances at 3.97% ai applied as foam in field measured after 6 days of treatment relative to untreated control. The format is functional.
Assay [4] relates to Microtus arvalis. The experiment in a line: In-soil repellent activity against Microtus arvalis (Common vole) in forage grassland assessed as decrease in number of active burrow entrances at 3.97% ai applied as foam in field measured after 24 hr relative to control. The class given is functional.
Assay [5] has as its system Microtus arvalis. The experiment in a line: In-soil repellent activity against Microtus arvalis (Common vole) in forage grassland assessed as decrease in number of active burrow entrances at 3.97% ai applied as foam in field measured after 3 days of treatment. The class given is functional, organism-based.
The subject of assay [6] is Microtus arvalis. As to the kind of experiment: In-soil repellent activity against Microtus arvalis (Common vole) in forage grassland assessed as decrease in number of active burrow entrances at 3.97% ai applied as foam in field for first 3 days and reapplied on day 10 measured on day 14. The class given is functional, organism-based.
In assay [7] the test system is Microtus arvalis. As to the kind of experiment: Decrease in reopening of compound treated burrow entrances in forage grassland by Microtus arvalis (Common vole) assessed as increase in number of new burrow entrances at 3.97% ai applied as foam in field measured after 5 days of treatment (reference value: 40 +/-19.4%). The format is functional. Also noted: scale not given: the % may be the effect or the level left.

Assay [8] deals with Microtus arvalis. The experiment in a line: In-soil repellent activity against Microtus arvalis (Common vole) in forage grassland assessed as decrease in number of active burrow entrances at 3.97% ai applied as foam in field measured after 4-5 days of treatment. The class given is functional, organism-based.
The subject of assay [9] is Microtus arvalis. The experiment in a line: In-soil repellent activity against Microtus arvalis (Common vole) in forage grassland assessed as decrease in number of active burrow entrances at 3.97% ai applied as foam in field measured after 48 hr relative to control. The class given is functional.
Assay [10] deals with Microtus arvalis. The experiment in a line: In-soil repellent activity against Microtus arvalis (Common vole) in forage grassland assessed as decrease in number of active burrow entrances at 3.97% ai applied as foam in field for 3 days measured on day 7. The format is functional, organism-based.
Assay [11] has as its system Microtus arvalis. As to the kind of experiment: Decrease in reopening of compound treated burrow entrances in forage grassland by Microtus arvalis (Common vole) assessed as increase in number of new burrow entrances at 3.97% ai applied as foam in field (reference value: 41 +/-21.1%). The class given is functional. Also noted: scale not given: the % may be the effect or the level left.

Assay [12] concerns Microtus arvalis. The experiment in a line: In-soil repellent activity against Microtus arvalis (Common vole) in forage grassland assessed as decrease in number of active burrow entrances at 3.97% ai applied as foam in field measured after 6 days of treatment (reference value: 48 +/-12%). The format is functional.

Take `CCCCCCCCCC(C)=O` [METHYL NONYL KETONE]: the inhibition result in assay [1], in assay [5], in assay [6], in assay [8] and in [10] was “Active” in each case. In assay [2], the inhibition result is “inactive”. The results for the “fold change (FC)” value in assay [3], in assay [4] and in assay [9] were 2, 3 and 2, respectively. The Activity in assay [7] came out at 95%; in assay [11], 73%. The “inhibition (INH)” value in assay [12] is on record as 92%.
